In US10144758B2, “Deuterated bile acids” (Metselex, Inc., priority 2013, dated 2018):

Tested on: primary rat hepatocytes
Assay: DCA-induced apoptosis, nuclear fragmentation by Hoechst staining
Type: cell-based
Settings: for prevention of nuclear fragmentation: 50 μM DCA, 100 μM compound pretreatment, FIG. 7C
Description: Primary rat hepatocytes were isolated from male rats (100-150 grams) by collagenase perfusion (as described by Solá S, et al., 2003, Journal of Biological Chemistry 278: 48831-48838)). Briefly, rats were anesthetized with phenobarbital sodium (100 mg/kg body weight) injected into the peritoneal cavity. After administration of heparin (200 units/kg body weight) in the tail vein, the animal's abdomen was opened and the portal vein exposed and cannulated. The liver was then perfused at 37° C. in situ with a calcium-free Hanks' Balanced Salt Solution (HBSS) for about 10 minutes, and then with 0.05% collagenase type IV in calcium-present HBSS for another 10 minutes. Hepatocyte suspensions were obtained by passing collagenase-digested livers through 125 μm gauze and washing cells in Complete William's E medium (William's E medium, Sigma-Aldrich Corp., St Louis, Mo., USA) supplemented with 26 mM sodium bicarbonate, 23 mM HEPES, 0.01 units/mL insulin, 2 mM L-glutamine, 10 nM dexamethasone, 100 units/mL penicillin, and 10% heat-inactivated fetal bovine serum (Invitrogen Corp., Carlsbad, Calif., USA). Viable primary rat hepatocytes were enriched by low-speed centrifugation at 200 g for 3 minutes. Cell viability was determined by trypan blue exclusion and was typically 80-85%. After isolation, hepatocytes were resuspended in Complete William's E medium and plated on PrimariaTM tissue culture dishes (BD Biosciences, San Jose, Calif., USA) at 5×10^4 cells/cm^2. Cells were maintained at 37° C. in a humidified atmosphere of 5% CO2 for 6 hours to allow attachment. […] Fluorescence was visualized using an Axioskop fluorescence microscope (Carl Zeiss GmbH). Blue-fluorescent nuclei were scored blindly and categorized according to the condensation and staining characteristics of chromatin. […] Five random microscopic fields per sample containing approximately 150 nuclei were counted, and mean values expressed as the percentage of apoptotic nuclei. […] Results are expressed as means±SEM of at least three experiments. *p<0.01 from control; § p<0.05 and †p<0.01 from respective DCA.

With “7,8-[^2H]-3α,7α-dihydroxy-5β-cholan-24-oic acid/7-[^2H]-3α,7α-dihydroxy-5β-cholan-24-oic acid [Compound 5]” the “prevention of nuclear fragmentation” value was ~65% and the “more effective than UDCA at reducing the percentage of apoptotic cells” value (DCA, Compound 5 versus UDCA) was ~15%.
`C[C@H](CCC(=O)O)[C@H]1CC[C@H]2[C@@H]3[C@@H](O)C[C@@H]4C[C@H](O)CC[C@]4(C)[C@H]3CC[C@]12C` [UDCA, Ursodeoxycholic acid, reference compound] was tested, and the “prevention of nuclear fragmentation” value was ~50%.
